Data set [1] can be described thus: Pharmacokinetics of oral administration of rats. The class given is in vivo. The conditions noted are these: male, rat, SD rats, p.o. 5.0 mg/kg, plasma. Here is the method:
With SD rats as tested animals, blood drug concentrations in plasma at different moments after oral administration of the compounds of the present application by the rats in a clarification kit mode were determined using an LC-MS/MS method. Pharmacokinetic parameters of the compounds of the present application in the rats were obtained, and pharmacokinetic characteristics of the compounds were studied.
• SD rats, male, weight 180-220 g, 3 rats per group. The animals were fed in an animal house after being purchased, an adaptation period was at least 3 days, and they were used for tests after passing quarantine.
According to Table 4, each group of rats was given the corresponding tested drugs or positive drugs by gavage, before administration, and 15 min, 30 min, 1 h, 2 h, 4 h, 6 h, 8 h, and 24 h after administration, a fixed volume of blood was collected through eye sockets and placed in an EDTA-K2 anticoagulant tube, centrifuging was carried out at 8000 rpm for 1 min to separate plasma into a centrifuge tube, and the plasma was frozen in a −20° C. refrigerator.
The plasma at each time point stored at −20° C. was taken out, then acetonitrile was added, after whirling at 1500 revolutions for 2 min, centrifuging was carried out for 15 min (3500 r/min), and a fixed volume of solution supernatant was taken for LC-MS/MS analysis.
Non-compartment model fitting was carried out on pharmacokinetic behaviors of the tested compounds, and DAS3.31 software was adopted to calculate main pharmacokinetic parameters (T1/2, Tmax, Cmax, AUClast, etc.).

A further data set concerns the target T1, LSD1 (Homo sapiens, UniProt O60341).
T1 construct: purchased Active Motif 31432
As to the kind of experiment: LSD1 activity test (HTRF). The conditions noted are these: H3(1-21)K4 me1-biotin substrate, read-out: IC50, inhibitory activity on LSD1. In kind it is biochemical. Here is the method: In this test, a homogeneous time resolved fluorescence (HTRF) technology was utilized, and the inhibitory activity of compounds on LSD1 was detected by adopting a two-step method. The first step was to incubate LSD1, compounds of different concentrations, and a biotin-labeled methylated polypeptide substrate (H3(1-21)K4 me1-biotin) at the room temperature for fixed time.
A corresponding solution with a 1000-fold final concentration was formed by dilution in a 384-well Source plate, and then Echo550 was used for transferring 10 nL to a 384-well reaction plate for being tested.
An inhibition percentage was calculated using a maximum value, a minimum value, and a signal value (maximum value: fluorescence intensity of 5 μL of 2× enzyme solution+5 μL of 2× substrate mixed solution+10 nL of 100% DMSO+10 μL of detection solution; minimum value: fluorescence intensity of 5 μL of 1× reaction solution+5 μL of 2× substrate mixed solution+10 nL of 100% DMSO+10 μL of detection solution; and signal value: fluorescence intensity of 5 μL of 2× enzyme solution+5 μL of 2× substrate mixed solution+10 nL of diluted compound to be tested+10 μL of detection solution), and a calculation formula was as follows: […]
Using a logarithm of the concentration as an X axis and the percentage inhibition rate as a Y axis, a dose-response curve was fitted using a formula log(inhibitor) vs. response-Variable slope (Four parameters) of analysis software Graphpad Prism 5 to obtain the IC50 value of each compound on the enzyme activity.
On the technique in general: TR-FRET usually uses a lanthanide donor and a delayed reading to cut background.

Broadly, the AUC(0-t) is exposure summed from dosing to a finite time, without extrapolation to infinity. A lower AUC(0-t) goes with less exposure. Broadly, the Cmax is the peak of the concentration-time curve. The Tmax is the time at which the peak concentration occurs. A word on the half-life: it is the time in which the quantity being followed falls by half. Low values mean fast loss, high ones slow loss. For orientation: IC50 means the concentration that inhibits the measured activity by half. On to `COc1ccc(-c2c(C#N)cc(N3CCC(N)CC3)nc2-c2ccc(C#N)c(F)c2)cc1F` [Compound 1, 6-(4-aminopiperid-1-yl)-2-(4-cyano-3-fluorophenyl)-3-(3-fluoro-4-methoxyphenyl)isonicotinonitrile], for which, in data set [1], the exposure AUC(0-t) was 1300 ± 411 ng·h/mL, the highest level (Cmax) was 93.9 ± 19.1 ng/mL, the time of peak concentration (Tmax) stood at 6 h and the half-life was 7.64 ± 2.46 h. Further, the 50% inhibitory concentration (IC50) on LSD1 came to 2.1 nM.

In the case of `COc1ccc(-c2c(C(N)=O)cc(N3CCC(N)CC3)nc2-c2ccc(C#N)c(F)c2)cc1F` [Compound 2, 6-(4-aminopiperid-1-yl)-2-(4-cyano-3-fluorophenyl)-3-(3-fluoro-4-methoxyphenyl)isonicotinamide], the IC50 at LSD1 is 4.8 nM.

Regarding `COc1ccc(-c2c(-c3ccc(C#N)c(F)c3)nc(N3CCC(N)CC3)c3c2CNC3=O)cc1F` [Compound 3, 4-(4-(4-aminopiperid-1-yl)-7-(3-fluoro-4-methoxyphenyl)-3-oxo-2,3-dihydro-1H-pyrrole[3,4-c]pyrid-6-yl)-2-fluorobenzonitrile], the IC50 on LSD1 is 5.8 nM.

For the compound `Cn1ncc2cc(-c3c(-c4ccc(C#N)c(F)c4)nc(N4CCC(N)CC4)c4c3CNC4=O)ccc21` [Compound 8, 4-(4-(4-aminopiperid-1-yl)-7-(1-methyl-1H-indazol-5-yl)-3-oxo-2,3-dihydro-1H-pyrrole[3,4-c]pyrid-6-yl)-2-fluorobenzonitrile], the IC50 on LSD1 amounted to 6.5 nM.

For `CC(C)(O)Cn1ncc2cc(-c3c(-c4ccc(C#N)c(F)c4)nc(N4CCC(N)CC4)c4c3CNC4=O)c(F)cc21` [Compound 9, 4-(4-(4-aminopiperid-1-yl)-7-(6-fluoro-1-(2-hydroxyl-2-methylpropyl)-1H-indazol-5-yl)-3-oxo-2,3-dihydro-1H-pyrrole[3,4-c]pyrid-6-yl)-2-fluorobenzonitrile], the IC50 at LSD1 was 0.72 nM.

Regarding `Cn1ncc2cc(-c3c(C(N)=O)cc(N4CCC(N)CC4)nc3-c3ccc(C#N)c(F)c3)ccc21` [Compound 10, 6-(4-aminopiperid-1-yl)-2-(4-cyano-3-fluorophenyl)-3-(1-methyl-1H-indazol-5-yl)isonicotinamide], the IC50 on LSD1 stood at 0.81 nM.

`Cn1ncc2cc(-c3cc(C(N)=O)c(N4CCC(N)CC4)nc3-c3ccc(C#N)c(F)c3)ccc21` [Compound 11, 2-(4-aminopiperid-1-yl)-6-(4-cyano-3-fluorophenyl)-5-(1-methyl-1H-indazol-5-yl)nicotinamide]: the IC50 on LSD1 worked out at 1.5 nM.

In the case of `Cn1ncc2cc(-c3cc(C#N)c(N4CCC(N)CC4)nc3-c3ccc(C#N)c(F)c3)ccc21` [Compound 12, 2-(4-aminopiperid-1-yl)-6-(4-cyano-3-fluorophenyl)-5-(1-methyl-1H-indazol-5-yl)nicotinonitrile], on LSD1, the concentration for half-maximal inhibition (IC50) came to 4.4 nM.

With `COc1ccc(-c2c(C#N)cc(C3CCC(N)CC3)nc2-c2ccc(C#N)c(F)c2)cc1F` (stereo not shown) [Compound 14, 6-(4-aminocyclohexyl)-2-(4-cyano-3-fluorophenyl)-3-(3-fluoro-4-methoxyphenyl)isonicotinonitrile], in data set [1], the AUC(0-t) worked out at 1470 ± 44.6 ng·h/mL, the peak level (Cmax) was 130 ± 7.9 ng/mL, the time of peak concentration (Tmax) is 4.67 ± 2.31 h and the half-life was 5.97 ± 0.29 h. The half-inhibitory concentration (IC50) on LSD1 came to 8.9 nM.

Consider `COc1ccc(-c2c(C#N)cc(N3CCCNCC3)nc2-c2ccc(C#N)c(F)c2)cc1F` [Compound 15, 2-(4-cyano-3-fluorophenyl)-6-(1,4-diazacyclohepta-1-yl)-3-(3-fluoro-4-methoxyphenyl)isonicotinonitrile], for which, in data set [1], the AUC(0-t) was 1550 ± 252 ng·h/mL, the peak level (Cmax) was 125 ± 25.8 ng/mL, the Tmax turned out to be 6 h and the half-life is 5.73 ± 0.8 h. In addition, the IC50 on LSD1 was 2 nM.

For the compound `CC(C)(O)Cn1ncc2cc(-c3c(C(N)=O)cc(N4CCC(N)CC4)nc3-c3ccc(C#N)c(F)c3)c(F)cc21` [Compound 17, 6-(4-aminopiperid-1-yl)-2-(4-cyano-3-fluorophenyl)-3-(6-fluoro-1-(2-hydroxyl-2-methylpropyl)-1H-indazol-5-yl)isonicotinamide], the IC50 on LSD1 was found to be 1.2 nM.

In the case of `CC(C)(O)Cc1ccc(-c2c(C#N)cc(N3CCC(N)CC3)nc2-c2ccc(C#N)c(F)c2)c(F)c1` [Compound 19, 6-(4-aminopiperid-1-yl)-2-(4-cyano-3-fluorophenyl)-3-(2-fluoro-4-(2-hydroxyl-2-methylpropyl)phenyl)isonicotinonitrile], the half-inhibitory concentration (IC50) on LSD1 was 3.1 nM.

Turning to `Cn1ncc2cc(-c3c(C#N)cc(N4CCCNCC4)nc3-c3ccc(C#N)c(F)c3)ccc21` [Compound 20, 2-(4-cyano-3-fluorophenyl)-6-(1,4-diazaniline-1-yl)-3-(1-methyl-1H-indazol-5-yl)isonicotinonitrile], in data set [1], the exposure AUC(0-t) came out at 1410 ± 293 ng·h/mL, the concentration peaked (Cmax) at 126 ± 23.9 ng/mL, the Tmax came out at 4.67 ± 1.15 h and the half-life is 4.66 ± 0.73 h. In addition, the half-inhibitory concentration (IC50) at LSD1 was 1.4 nM.

`COc1ccc(-c2c(C#N)cc(N3CCC4(CC3)CNC4)nc2-c2ccc(C#N)c(F)c2)cc1F` [Compound 22, 2-(4-cyano-3-fluorophenyl)-3-(3-fluoro-4-methoxyphenyl)-6-(2,7-diazaspiro[3.5]non-7-yl)isonicotinonitrile]: the half-maximal inhibitory concentration (IC50) on LSD1 was 6.2 nM.

Take `Cn1ncc2cc(-c3cc(C(N)=O)c(N4CCCNCC4)nc3-c3ccc(C#N)c(F)c3)ccc21` [Compound 26, 6-(4-cyano-3-fluorophenyl)-2-(1,4-diaza-1-yl)-5-(1-methyl-1H-indazol-5-yl)nicotinamide]: the 50% inhibitory concentration (IC50) at LSD1 was found to be 2.9 nM.

For the compound `CN(C)C(=O)c1cc(-c2ccc3c(cnn3C)c2)c(-c2ccc(C#N)c(F)c2)nc1N1CCCNCC1` [Compound 27, 6-(4-cyano-3-fluorophenyl)-2-(1,4-diazaniline-1-yl)-N,N-dimethyl-5-(1-methyl-1H-indazol-5-yl)nicotinamide], at LSD1, the IC50 was 3.3 nM.

On to `Cn1ncc2cc(-c3cc(C(=O)NC4CC4)c(N4CCCNCC4)nc3-c3ccc(C#N)c(F)c3)ccc21` [Compound 28], for which the 50% inhibitory concentration (IC50) at LSD1 was 2.3 nM.

`COc1ccc(-c2c(C#N)cc(N3CCC4(CCNC4)CC3)nc2-c2ccc(C#N)c(F)c2)cc1F` [Compound 29, 2-(4-cyano-3-fluorophenyl)-3-(3-fluoro-4-methoxyphenyl)-6-(2,8-diazaspiro[4.5]dec-8-yl)isonicotinonitrile]: the half-maximal inhibitory concentration (IC50) at LSD1 stood at 3.4 nM.

As to `Cc1noc2cc(-c3c(C#N)cc(N4CCC(N)CC4)nc3-c3ccc(C#N)c(F)c3)c(F)cc12` [Compound 33, 6-(4-aminopiperid-1-yl)-2-(4-cyano-3-fluorophenyl)-3-(5-fluoro-3-tolueno[d]isoxazol-6-yl)isonicotinonitrile], the half-maximal inhibitory concentration (IC50) at LSD1 was 0.34 nM.

As to `CN1C(=O)C(F)(F)c2cc(-c3c(C#N)cc(N4CCC(N)CC4)nc3-c3ccc(C#N)c(F)c3)ccc21` [Compound 34, 6-(4-aminopiperid-1-yl)-2-(4-cyano-3-fluorophenyl)-3-(3,3-difluoro-1-methyl-2-oxoindol-5-yl)isonicotinonitrile], the 50% inhibitory concentration (IC50) on LSD1 turned out to be 1.5 nM.

As to `CC(C)(O)C(F)(F)c1ccc(-c2c(C#N)cc(N3CCC(N)CC3)nc2-c2ccc(C#N)c(F)c2)c(F)c1` [Compound 35, 6-(4-aminopiperid-1-yl)-2-(4-cyano-3-fluorophenyl)-3-(4-(1,1-difluoro-2-hydroxyl-2-methylpropyl)-2-fluorophenyl)isonicotinonitrile], the 50% inhibitory concentration (IC50) on LSD1 was 2.2 nM.

Values taken from patent publication US20250163016A1, “PYRIDINE DERIVATIVE, PREPARATION METHOD THEREFOR AND USE THEREOF” (CHENGDU EASTON BIOPHARMACEUTICALS CO., LTD., priority 2022, published 2025).
